Patent US20250295609A1, “COMPOUND HAVING ANTI-ANDROGEN RECEPTOR ACTIVITY, AND USE THEREOF” (NANJING MINOVA PHARMACEUTICAL CO., LTD., priority 2022, published 2025)
Where two headings read alike, the source gives them in different places.

Experiments:
alopecia mouse model = assay: Hair growth promotion test in mice with alopecia (testosterone propionate model); assay type: in vivo, C57BL/6 mice; conditions: for growth of hairs and hair follicles compared to positive control drug group (in words): daily dose 1.5 mg, FIG. 3; for Number of hair follicles (X ± SD): day 18, per field (×100), HE staining, topical once daily for 16 days; for Hair length (X ± SD): day 18, topical once daily for 16 days, testosterone propionate alopecia mice
Protocol: The compounds of the present disclosure were tested for their hair growth-promoting effects on an alopecia mouse model.
C57BL/6 mice (purchased from SPF (Beijing) Biotechnology Co., Ltd., production license No.: SCXK (Beijing) 2019-0010), test compounds (prepared by the method of the present disclosure), rosin (Shanghai YuanYe Bio-Technology Co., Ltd., lot No. Y18M10C83144), liquid paraffin (Shanghai YuanYe Bio-Technology Co., Ltd., lot No.: Z22S11Y125555), chloral hydrate (Sinopharm Chemical Reagent Co., Ltd., lot No.: 20190823, a 2% chloral hydrate solution was prepared by using a 0.9% sodium chloride solution before use), testosterone propionate (Aladdin Reagent (Shanghai) Co., Ltd., lot No.: T101368, a 0.5% testosterone propionate solution was prepared by using an a soybean oil for injection before use), soybean oil for injection (Liaoning Shinsun Pharmaceutical Co., Ltd., lot No.: NMPA Approval No. H21024303), paraformaldehyde (Xilong Scientific Co., Ltd., lot No.: 1705022), a 0.9% sodium chloride solution (Jiangsu Huai'an Shuanghe Pharmaceutical Co., Ltd., lot No.: 210322-3C), an electronic balance (Beijing Sartorius Scientific Instruments Co., Ltd., model: BS224 S; GZX-9140MBE), and a digital display electric heating constant temperature air blast drying oven (Shanghai Boxun Medical Biological Instrument Corp.).
8-week-old male C57BL/6 mice were selected and injected with 2% chloral hydrate (400 mg/kg) for anesthesia. Equal amounts of rosin and paraffin were weighed out, heated, and mixed well. The mixture was applied on the front back of the mice in an area of about 2 cm×2.5 cm. After the mixture was cooled to be hard, the solidified hair was torn off by tweezers gently.
Qualified C57BL/6 mice (3 mice per group) were randomly assigned to a blank group, a model group, a positive control drug group (7.5% clascoterone group), and test groups (including 0.3% compound 8 group and 0.3% compound 7 group). Mice in the blank group were coated with 0.1 mL of normal saline in the depilated area every morning (1 time a day for 17 consecutive days); mice in the model group were coated with 0.1 mL of 0.5% testosterone propionate solution in the depilated area every morning (1 time a day, starting on the first day, for 17 consecutive days), and with 0.5 mL of the control solvent in the depilated area every afternoon (1 time a day, starting on the second day, for 16 consecutive days); mice in the positive control drug group were coated with 0.1 mL of 0.5% testosterone propionate solution in the depilated area every morning (1 time a day, starting on the first day, for 17 consecutive days), and with 0.5 mL of 7.5% clascoterone solution in the depilated area every afternoon (1 time a day, starting on the second day, for 16 consecutive days); and mice in the test groups were coated with 0.1 mL of 0.5% testosterone propionate solution in the depilated area every morning (1 time a day, starting on the first day, for 17 consecutive days), and with 0.5 mL of 0.3% test compound solution in the depilated area every afternoon (1 time a day, starting on the second day, for 16 consecutive days). The formula of the test compound solution was 0.3% test compound, 40% DMSO, 30% ethanol, and the balance of water; the formula of the control solvent was 40% DMSO, 30% ethanol, and the balance of water; the formula of the positive control drug group was 7.5% clascoterone, 40% DMSO, 30% ethanol, and the balance of water. The hair regrowth in the depilated area of the mice in each group was observed and photographed 16 days after the start of topical administration of the test compound solution.
On day 18 of the test, 5 new hairs were pulled out from the back depilated area of each mouse in each group, the lengths of the hairs were measured using a vernier caliper, and the lengths of the hairs of the mice in each group were counted. The skin of the depilated area of the mice in each group was cut out, and hematoxylin-eosin staining (HE staining) was performed. […]

[1] = tested on: human prostate cancer cells LNCaP; assay: Cell viability inhibition assay (CTG) on LNCaP cells in presence of DHT; assay type: cell-based; conditions: Homo sapiens, 120 h, read-out: Inhibitory activity against human prostate cancer cell LNCaP IC50
Excerpt: Human prostate cancer cells LNCaP and human prostate cancer cells 22Rvl are present in patients with prostate cancer. An androgen, DHT, is able to promote the growth of human prostate cancer cells LNCaP. Using the cell model described above was intended to study the inhibitory effects of the compounds of the present disclosure on the growth of human prostate cancer cells (human prostate cancer cells LNCaP and human prostate cancer cells 22Rvl) in the presence or absence of DHT.
The medium in the culture dish was discarded, and 5 mL of trypsin was added for digestion for about 3 mins. The digestion was stopped by adding 10 mL of a fresh medium. The cells were fully pipetted and transferred to a 15 mL centrifuge tube, and the cells were collected by centrifugation at 1000 rpm for 5 mins. The cells collected by centrifugation were resuspended in 11 mL of a fresh medium. 1 mL of the cells was taken and counted, and the cell viability was detected. The cell density was adjusted to 1×10^4 cells/mL by adding an appropriate amount of the medium. The cells were seeded in a 96-well plate at 200 µL/well, and the plate was incubated overnight in a cell incubator.
After the cells were attached to the well, for the human prostate cancer cells LNCaP group, test compounds (0.1 μM, 0.3 μM, 1 μM, 3 μM, 10 μM, and 30 μM) and DHT (1 nM, inducing the expression of AR) were added to the 96-well plate, and the plate was incubated for another 5 days; for the human prostate cancer cells 22Rvl group, test compounds (0.1 μM, 0.3 μM, 1 μM, 3 μM, 10 μM, and 30 μM) were added to the 96-well plate, and the plate was incubated for another 5 days. […] The 96-well plate was equilibrated at room temperature for 30 mins. The cell viability was detected by using a CTG method. Before detection, CellTiter-Glo® Buffer and a substrate thereof (collectively called CTG reagent) were thawed and equilibrated to room temperature. Then, […] of Buffer was gently mixed with the substrate to form a homogeneous solution. The homogeneous solution was added to the 96-well plate at 100 µL/well, and the 96-well plate was incubated on a shaker for 15 mins. The fluorescence value in each well was then detected. The detection method for the fluorescence value in each well was as follows: after adding the CTG reagent, luminescence detection (integration time: 500 ms) was performed by using a correspondingly equipped multi-mode microplate reader (M200Pro, TECAN, Switzerland) according to the supplier's manual to quantify the effect of the inhibitor on the cell viability. For data analysis, an assay background value was subtracted from all data points, which was determined in wells containing the medium but no cells. Data were processed using the XLfit software (XLfit 5.2., IDBS, UK), and IC50 values of the test compounds were calculated.

IC50 ([1]; 1 nM DHT, 5 days, CTG) [nM] | SMILES | growth of hairs and hair follicles compared to positive control drug group (in words) (alopecia mouse model) | Number of hair follicles (X ± SD) (alopecia mouse model) | Hair length (X ± SD) (alopecia mouse model) [mm] | IC50 [1] [nM]
 | COc1ccc(/C=C/C(=O)C2(C(=O)/C=C/c3ccc(OC)c(OC)c3)CCC(=O)CC2)cc1OC [Compound 7] | better than that of the positive control drug group | 95.600 ± 26.091 | 3.850 ± 0.009 | 830
610 | COc1ccc(/C=C/C(=O)C2(C(=O)/C=C/c3ccc(OC)c(OC)c3)CCC(F)(F)CC2)cc1OC [Compound 8] | better than that of the positive control drug group | 116.733 ± 35.809 | 4.493 ± 0.024 | 
